Patent US7781439B2, “Pyrazolopyrimidines” (Bayer CropScience AG, priority 2005, dated 2010)
Marks after values point to notes of the source that are not given here.

Assay: log P determination
Assay type: physicochemical
Details: EEC Directive 79/831 Annex V. A8 by HPLC (gradient method, acetonitrile/0.1% aqueous phosphoric acid)

| Structure (SMILES) | log p |
| --- | --- |
| CC(C)C(C)Nc1c(-c2c(Cl)cc(OC(F)(F)F)cc2Cl)c(Cl)nc2c(C(=O)NS(C)(=O)=O)cnn12 (racemic) [compound 1198] | 4.85 |
| CC(C)C(C)Nc1c(-c2ccc(F)cc2Cl)c(Cl)nc2c(C(=O)Nc3ccn(C)n3)cnn12 (stereo not drawn) [compound 1184] | 4.35 |

Same assay, conditions: HPLC, gradient method, acetonitrile/0.1% aqueous phosphoric acid (EEC Directive 79/831 Annex V. A8)

| Structure (SMILES) | log p |
| --- | --- |
| CNC(=O)NC(=O)c1cnn2c(N[C@H](C)C(C)C)c(-c3ccc(F)cc3C)c(Cl)nc12 [Example 1178] | 4.42 |
| Cc1cc(F)ccc1-c1c(Cl)nc2c(C(=O)Nc3ncccn3)cnn2c1NC(C)C(C)C (stereo not drawn) [compound 1179] | 6.61 |
| CC(C)C(C)Nc1c(-c2ccc(F)cc2F)c(Cl)nc2c(C(=O)NN3CCOCC3)cnn12 (stereo not drawn) [compound 1180] | 3.46 |
| Cc1ccc(-c2c(Cl)nc3c(C(=O)NN4CCOCC4)cnn3c2NC(C)C(C)(C)C)c(Cl)c1 (stereo not drawn) [compound 1181] | 4.41 |
| CC(Nc1c(-c2ccc(F)cc2F)c(Cl)nc2c(C(=O)NN3CCOCC3)cnn12)C(C)(C)C (stereo not drawn) [compound 1182] | 3.76 |
| Cc1ccsc1-c1c(Cl)nc2c(C(=O)NN3CCOCC3)cnn2c1NC(C)C(C)C (stereo not drawn) [compound 1183] | 3.63 |

Same assay, conditions: intermediates of formula drawing 23, table

| Structure (SMILES) | log P |
| --- | --- |
| COC(=O)c1cnn2c(NC(C)C(C)C)c(-c3c(F)cc(F)cc3F)c(Cl)nc12 (stereo not drawn) | 4.05 |
| COC(=O)c1cnn2c(NC(C)C(C)(C)C)c(-c3c(F)cc(F)cc3F)c(Cl)nc12 (stereo not drawn) | 4.93 |
| COC(=O)c1cnn2c(N3CCC(C)CC3)c(-c3c(F)cccc3Cl)c(Cl)nc12 [(CH2—CH2—CHCH3—CH2—CH2), 2-Cl-6-F-phenyl] | 4.61 |
| COC(=O)c1cnn2c(NC(C)C(F)(F)F)c(-c3c(F)cc(F)cc3F)c(Cl)nc12 (stereo not drawn) [CH(CH3)(CF3), H, 2,4,6-trifluorophenyl] | 3.53 |
| COC(=O)c1cnn2c(NC(C)C(F)(F)F)c(-c3ccc(F)cc3Cl)c(Cl)nc12 (stereo not drawn) [CH(CH3)(CF3), H, 2-Cl-4-F-phenyl] | 3.75 |
| COC(=O)c1cnn2c(NC(C)C(C)(C)C)c(-c3ccc(F)cc3Cl)c(Cl)nc12 (stereo not drawn) [CH(CH3)—C(CH3)3, H, 2-Cl-4-F-phenyl] | 4.68 |
| COC(=O)c1cnn2c(NC(C)C(C)(C)C)c(-c3c(F)cccc3Cl)c(Cl)nc12 (stereo not drawn) [CH(CH3)—C(CH3)3, H, 2-Cl-6-F-phenyl] | 4.51 |
| COC(=O)c1cnn2c(NC(C)C(C)(C)C)c(-c3ccccc3Cl)c(Cl)nc12 (stereo not drawn) [CH(CH3)—C(CH3)3, H, 2-Cl-phenyl] | 4.61 |
| COC(=O)c1cnn2c(NC(C)C(C)(C)C)c(-c3ncncc3F)c(Cl)nc12 (stereo not drawn) [CH(CH3)—C(CH3)3, H, 5-F-pyrimidin-4-yl] | 3.15 |
| COC(=O)c1cnn2c(NC(C)C(C)C)c(-c3ccc(F)cc3Cl)c(Cl)nc12 (stereo not drawn) [CH(CH3)—CH(CH3)2, H, 2-Cl-4-F-phenyl] | 4.31 |
| COC(=O)c1cnn2c(NC(C)C(C)C)c(-c3c(F)cccc3Cl)c(Cl)nc12 (stereo not drawn) [CH(CH3)—CH(CH3)2, H, 2-Cl-6-F-phenyl] | 4.12 |
| COC(=O)c1cnn2c(NC(C)C(C)C)c(-c3ccccc3Cl)c(Cl)nc12 (stereo not drawn) [CH(CH3)—CH(CH3)2, H, 2-Cl-phenyl] | 4.21 |

Same assay, conditions: starting materials and intermediates, log P / log P*; read-out: log P

| Structure (SMILES) | log p |
| --- | --- |
| CC(C)Nc1c(-c2ccc(Cl)cc2Cl)c(Cl)nc2c(C(=O)O)cnn12 [5-Chloro-6-(2,4-dichlorophenyl)-7-isopropylaminopyrazolo[1,5-a]pyrimidine-3-carboxylic acid] | 3.3 |
| COC(=O)c1cnn2c(Cl)c(-c3ccc(Cl)cc3Cl)c(Cl)nc12 [Methyl 5,7-dichloro-6-(2,4-dichlorophenyl)pyrazolo[1,5-a]pyrimidine-3-carboxylate] | 3.86 |
| COC(=O)c1cnn2c(NC(C)C)c(-c3ccc(Cl)cc3Cl)c(Cl)nc12 [Methyl 5-chloro-6-(2,4-dichlorophenyl)-7-isopropylaminopyrazolo[1,5-a]pyrimidine-3-carboxylate] | 4.07 |
| COC(=O)c1cnn2c(O)c(-c3ccc(Cl)cc3Cl)c(O)nc12 [Methyl 6-(2,4-dichlorophenyl)-5,7-dihydroxypyrazolo[1,5-a]pyrimidine-3-carboxylate] | 1.21 |

Same assay, conditions: values marked **; EEC Directive 79/831 Annex V.A8, HPLC gradient method, acetonitrile/0.1% aqueous formic acid

| Structure (SMILES) | log p |
| --- | --- |
| Cc1cc(F)c(-c2c(Cl)nc3c(C(=O)NS(C)(=O)=O)cnn3c2N[C@H](C)C(C)(C)C)c(F)c1 [compound 51] | 4.38** |
| CC(Nc1c(-c2ccccc2)c(Cl)nc2c(C(=O)Nc3ccon3)cnn12)C(C)(C)C (stereo not drawn) [compound 71] | 4.88** |
| CC(C)[C@@H](C)Nc1c(-c2ccc(Cl)cc2Cl)c(Cl)nc2c(C(=O)NS(=O)(=O)C(F)(F)F)cnn12 [compound 206] | 3.87** |
| CCS(=O)(=O)NC(=O)c1cnn2c(N[C@H](C)C(C)C)c(-c3ccc(Cl)cc3Cl)c(Cl)nc12 [compound 208] | 4.88** |
| Cc1cc(F)c(-c2c(Cl)nc3c(C(=O)NS(C)(=O)=O)cnn3c2N[C@H](C)C(C)C)c(F)c1 [compound 219] | 4.08** |

Same assay, conditions: values marked *; HPLC, gradient method, acetonitrile/0.1% aqueous phosphoric acid, EEC Directive 79/831 Annex V. A8

| Structure (SMILES) | log p | chromatographic logP |
| --- | --- | --- |
| CC(C)Nc1c(-c2ccc(F)cc2Cl)c(Cl)nc2c(C(=O)NS(C)(=O)=O)cnn12 [Example 351] | 3.57* |  |
| CC(C)Nc1c(-c2ccccc2Cl)c(Cl)nc2c(C(=O)NS(C)(=O)=O)cnn12 [Example 357] | 3.44* |  |
| CC(C)Nc1c(-c2c(F)cc(Cl)cc2F)c(Cl)nc2c(C(=O)NS(C)(=O)=O)cnn12 [Example 381] | 3.68* |  |
| CC(C)CNc1c(-c2c(F)cc(F)cc2F)c(Cl)nc2c(C(=O)NS(C)(=O)=O)cnn12 [Example 429] | 3.59* |  |
| CC(C)CNc1c(-c2ccc(F)cc2Cl)c(Cl)nc2c(C(=O)NS(C)(=O)=O)cnn12 [Example 435] | 3.82* |  |
| CC(C)CNc1c(-c2ccccc2Cl)c(Cl)nc2c(C(=O)NS(C)(=O)=O)cnn12 [Example 441] | 3.78* |  |
| CC(C)CNc1c(-c2ccc(Cl)cc2Cl)c(Cl)nc2c(C(=O)NS(C)(=O)=O)cnn12 [Example 459] | 4.26* |  |
| CC(C)CNc1c(-c2c(F)cc(Cl)cc2F)c(Cl)nc2c(C(=O)NS(C)(=O)=O)cnn12 [Example 465] | 3.97* |  |
| CC(C)(C)CNc1c(-c2c(F)cccc2Cl)c(Cl)nc2c(C(=O)NS(C)(=O)=O)cnn12 [Example 507] | 4.04* |  |
| CC(C)(C)CNc1c(-c2c(F)cc(F)cc2F)c(Cl)nc2c(C(=O)NS(C)(=O)=O)cnn12 [Example 513] | 3.9* |  |
| CC(C)(C)CNc1c(-c2ccc(F)cc2Cl)c(Cl)nc2c(C(=O)NS(C)(=O)=O)cnn12 [Example 519] | 4.19* |  |
| CC(C)(C)CNc1c(-c2ccccc2Cl)c(Cl)nc2c(C(=O)NS(C)(=O)=O)cnn12 [Example 525] | 4.17* |  |
| CC(C)(C)CNc1c(-c2ccc(Cl)cc2Cl)c(Cl)nc2c(C(=O)NS(C)(=O)=O)cnn12 [Example 543] | 4.63* |  |
| CC(C)(C)CNc1c(-c2c(F)cc(Cl)cc2F)c(Cl)nc2c(C(=O)NS(C)(=O)=O)cnn12 [Example 549] | 4.31* |  |
| CC(C)Nc1c(-c2ccc(Cl)cc2Cl)c(Cl)nc2c(C(=O)NS(C)(=O)=O)cnn12 [compound 375] |  | 3.91 |

Same assay, conditions: values marked *; no footnote carries the single asterisk; general footnote: HPLC gradient method, acetonitrile/0.1% aqueous phosphoric acid

| Structure (SMILES) | log p |
| --- | --- |
| C[C@@H](Nc1c(-c2c(F)cccc2Cl)c(Cl)nc2c(C(=O)NS(C)(=O)=O)cnn12)C(C)(C)C [Example 3] | 4.19* |
| C[C@@H](Nc1c(-c2ccccc2Cl)c(Cl)nc2c(C(=O)NS(C)(=O)=O)cnn12)C(C)(C)C [Example 21] | 4.36* |
| C[C@@H](Nc1c(-c2ccc(Cl)cc2Cl)c(Cl)nc2c(C(=O)NS(C)(=O)=O)cnn12)C(C)(C)C [Example 39] | 4.89* |
| C[C@@H](Nc1c(-c2c(F)cc(Cl)cc2F)c(Cl)nc2c(C(=O)NS(C)(=O)=O)cnn12)C(C)(C)C [Example 45] | 4.55* |
| CC(C)[C@@H](C)Nc1c(-c2c(F)cccc2Cl)c(Cl)nc2c(C(=O)NS(C)(=O)=O)cnn12 [Example 171] | 3.9* |
| CC(C)[C@@H](C)Nc1c(-c2ccccc2Cl)c(Cl)nc2c(C(=O)NS(C)(=O)=O)cnn12 [Example 189] | 4.01* |
| CC(C)[C@@H](C)Nc1c(-c2c(F)cc(F)cc2Cl)c(Cl)nc2c(C(=O)NS(C)(=O)=O)cnn12 [Example 201] | 4.05* |
| CC(C)[C@@H](C)Nc1c(-c2ccc(Cl)cc2Cl)c(Cl)nc2c(C(=O)NS(C)(=O)=O)cnn12 [Example 207] | 4.55* |
| CC(C)[C@@H](C)Nc1c(-c2c(F)cc(Cl)cc2F)c(Cl)nc2c(C(=O)NS(C)(=O)=O)cnn12 [Example 213] | 4.24* |
| CC1CCN(c2c(-c3c(F)cccc3Cl)c(Cl)nc3c(C(=O)NS(C)(=O)=O)cnn23)CC1 [Example 255] | 4.2* |
| CC1CCN(c2c(-c3c(F)cc(F)cc3F)c(Cl)nc3c(C(=O)NS(C)(=O)=O)cnn23)CC1 [Example 261] | 4.07* |
| CC1CCN(c2c(-c3c(F)cc(F)cc3Cl)c(Cl)nc3c(C(=O)NS(C)(=O)=O)cnn23)CC1 [Example 285] | 4.34* |

Same assay, conditions: values printed without asterisk; EEC Directive 79/831 Annex V. A8, HPLC gradient method, acetonitrile/0.1% aqueous phosphoric acid (general footnote)

| Structure (SMILES) | log p |
| --- | --- |
| C[C@@H](Nc1c(-c2c(F)cc(F)cc2F)c(Cl)nc2c(C(=O)NS(C)(=O)=O)cnn12)C(C)(C)C [Example 9] | 4.16 |
| C[C@@H](Nc1c(-c2ccc(F)cc2Cl)c(Cl)nc2c(C(=O)NS(=O)(=O)C(F)(F)F)cnn12)C(C)(C)C [Example 14] | 3.77 |
| C[C@@H](Nc1c(-c2ccc(F)cc2Cl)c(Cl)nc2c(C(=O)NS(C)(=O)=O)cnn12)C(C)(C)C [Example 15] | 4.44 |
| C[C@@H](Nc1c(-c2c(F)cc(F)cc2Cl)c(Cl)nc2c(C(=O)NS(C)(=O)=O)cnn12)C(C)(C)C [Example 33] | 4.38 |
| C[C@@H](Nc1c(-c2ccc(Cl)cc2Cl)c(Cl)nc2c(C(=O)NS(=O)(=O)C(F)(F)F)cnn12)C(C)(C)C [Example 38] | 3.93 |
| C[C@H](Nc1c(-c2ccc(Cl)cc2Cl)c(Cl)nc2c(C(=O)NS(C)(=O)=O)cnn12)C(F)(F)F [Example 123] | 3.99 |
| CC(C)[C@@H](C)Nc1c(-c2ccc(F)cc2Cl)c(Cl)nc2c(C(=O)NS(C)(=O)=O)cnn12 [Example 183] | 4.18 |
